According to paper PMC8298264, “Function of cofactor Akirin2 in the regulation of gene expression in model human neutrophil-like HL60 cells” (Bioscience Reports, 2021):

Tests used:
[1] = system: AKR2; design: key: A: Very high confidence in the interaction; B: High confidence in the interaction; D: Moderate confidence in the interaction; settings: AKR2-interacting proteins (IPs), physical interactome; ref https://doi.org/10.3390/vaccines8010077; cited from earlier work
Text: Supplement BSR-2021-1120_supp1.zip/BSR-2021-1120_suppST4.xlsx, sheet "BPs related to AKR2-IPs" | column: Predicted Biological Score (PBS)

[2] = system: ELANE and LHX2 mRNA in human HL60 cells; assay: Akirin2 'distraction' by histone peptide transfection, ELANE and LHX2 mRNA by qRT-PCR; type: cell-based; settings: 1.5 μg peptide per well, HL60 1 × 10^5 cells/well, harvested after 72 h; normalized to β-actin; unpaired t test P<0.05, n=3 biological replicates
[3] = biological target: T1, recAkirin2 (Homo sapiens, UniProt Q53H80); assay: In vitro protein pull-down and Western blot of recAkirin2 with biotinylated histone H3.1 peptides; type: binding; design: DDK (FLAG) (C); purchased GenScript (E. coli) or OriGene (HEK293T); 'insect cells and E. coli'; settings: streptavidin beads, 1 µg protein, 2 h at RT, Akirin2-specific antibody ab130473
[4] = system: recombinant human Akirin2 (recAkirin2); assay: EpiTriton Histone Peptide Array, recAkirin2 binding (fluorescence); settings: recAkirin2 vs HSP70, Student's t test and One-Way ANOVA (P<0.05), n=2 technical replicates
[5] = system: human HL60 cells; assay: SWATH-MS proteomics, differential protein representation, akirin2 KO vs WT HL60 cells; type: cell-based
Method: Total proteins were extracted from WT and akirin2 KO HL60 cells using the AllPrep DNA/RNA/Protein Mini Kit (Qiagen) and protein concentration was determined using the BCA Protein Assay with BSA (Sigma–Aldrich) as standard. Protein extracts (150 µg per sample, n=3 biological replicates) from each WT and KO cells were trypsin digested using the FASP Protein Digestion Kit (Expedeon Ltd., Abcam, Cambridge, U.K.) and sequencing grade trypsin (Promega, Madison, WI, U.S.A.) following manufacturer’s recommendations. The resulting peptides were finally desalted on to OMIX Pipette tips C18 (Agilent Technologies, Santa Clara, CA, U.S.A.), dried down and stored at −20 °C until mass spectrometry analysis. […] Three micrograms of each protein digest from the three biological replicates of WT and akirin2 KO HL60 cells were used for the generation of the reference spectral ion library as part of the SWATH-MS analysis.
Peptides were eluted in a 120-min gradient from 5 to 30% solvent B in solvent A followed by 15-min gradient from 30 to 60% solvent B in solvent A (solvent A: 0.1% formic acid in water, solvent B: 0.1% formic acid in acetonitrile) and directly injected into the mass spectrometer for analysis. For IDA experiments, the mass spectrometer was set to scanning full spectra (350–1400 m/z) using 250 ms accumulation time per spectrum, followed by up to 50 MS/MS scans (100–1500 m/z). Candidate ions with a charge state between +2 and +5 counts per second above a minimum threshold of 100 were isolated for fragmentation. One MS/MS spectrum was collected for 100 ms, before adding those precursor ions to the exclusion list for 15 s (mass spectrometer operated by Analyst TF 1.6, AB Sciex). Dynamic background subtraction was turned off. MS/MS analyses were recorded in high-sensitivity mode with rolling collision energy on and a collision energy spread of 5. For SWATH quantitative analysis, six independent samples (three replicates from WT and akirin2 KO HL60 cells, 5 µg each) were subjected to the cyclic DIA of mass spectra using the SWATH variable windows calculator (V 1.0, AB Sciex) and the SWATH acquisition method editor (AB Sciex), similar to established methods. […] For these experiments, a 50-ms survey scan (350–1400 m/z) was acquired at the beginning of each cycle, and SWATH–MS/MS spectra were collected from 100–1500 m/z for 70 ms at high-sensitivity mode, resulting in a cycle time of 3.6 s. Collision energy for each window was determined according to the calculation for a charge +2 ion-centered upon the window with a collision energy spread of 15. To create a spectral library of all the detectable peptides in the samples, the IDA MS raw files were combined and subjected to database search in unison using ProteinPilot software v. 5.0.1 (AB Sciex) with the Paragon algorithm. […] The detected protein threshold was set at 0.05. An independent false discovery rate (FDR) analysis, using the target–decoy approach provided by Protein Pilot (AB Sciex; https://sciex.com/products/software/proteinpilot-software), was used to assess the quality of identifications. Positive identifications were considered when identified proteins reached 1% of global FDR. […] Global normalization was performed according to the Total Area Sums (TAS) of all detected proteins in the samples. […] Heatmaps were prepared using the Heatmapper (http://www.heatmapper.ca/expression/) with average linkage and Euclidean distance measurement method.

[6] = biological target: T1, recAkirin2; assay: Akirin2–IP interactions in HL60 lysate, c-Myc pull-down and dot blot; type: binding; settings: recAkirin2 on c-Myc beads with HL60 lysate, dot blot; compared with SNRNP70, Student's t test P<0.05, n=2 biological replicates
Method: Some of the previously identified Akirin2 IPs were selected for analysis of Akirin2–IP interactions in human HL60 cells. The HL60 cells were pelleted, washed with cold PBS and proteins were extracted by adding 1 ml of cold TBS supplemented with protease inhibitor cocktail (Complete Mini EDTA-free, Roche, Switzerland). Cells were disrupted passing through a 20 G needle and sonicated (3 min/cycle, 3 cycles, 25°C) until lysate was clear. Lysate was centrifuged at 12000×g for 30 min at 4°C, after which the supernatant was collected, and protein concentration was determined using the BCA Protein Assay using BSA as the standard. The COOH-(Myc-([…])-DDK)-tagged recAkirin2 produced in human cells was used for interactions with the identified Akirin2–IPs, mediator of RNA polymerase II transcription subunit 16 (THRAP5; Q9Y2X0), phosphatidylinositol transfer protein-α isoform (PITPNA; Q00169), protein Wnt-2 (WNT2; P09544), and splicing factor 3a subunit 1 (SF3A1; Q15459). The U1 small nuclear ribonucleoprotein 70 kDa (SNRNP70; P08621) was used as protein negative control. […] Area and percent analysis of each chemiluminescence dot signal were obtained and analyzed using Fiji program (ImageJ 1.52n; https://downloads.tomsguide.com/ImageJ,0301-31184.html). […]

[7] = system: tick SUB; settings: cited from earlier work
Text: Epigenetic modifications of histone H3.1 at Lys amino acids has been involved in the regulation of transcription in different BPs and pathogen infection [[48–51]].

[8] = akirin2 KO vs WT HL60 cells, sheet "Under-represented in KO"
[9] = SWATH-MS, akirin2 KO vs WT HL60 cells, over-represented in KO
[10] = KO vs WT HL60 cells, sheet "Under-represented in KO"
[11] = akirin2 KO vs WT HL60 cells, sheet "Over-represented in KO"
[12] = KO vs WT, akirin2 KO vs WT HL60 cells, sheet "Under-represented in KO"
[13] = SWATH-MS, akirin2 KO vs WT HL60 cells, under-represented in KO
[14] = SWATH-MS, akirin2 KO vs WT HL60 cells, sheet "Under-represented in KO"

T1 sequence (Q53H80 whole entry): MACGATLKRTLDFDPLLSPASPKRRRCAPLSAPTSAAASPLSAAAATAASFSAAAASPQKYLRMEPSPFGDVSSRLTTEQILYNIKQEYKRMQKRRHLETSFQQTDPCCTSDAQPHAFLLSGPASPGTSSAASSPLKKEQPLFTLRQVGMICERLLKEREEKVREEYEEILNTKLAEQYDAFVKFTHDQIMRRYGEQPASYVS

For RGPD5, the “Predicted Biological Score (PBS)” value [1] is listed as “A”.

For WDYHV1, the “Predicted Biological Score (PBS)” value [1] is listed as “A”.

For RGPD8, the “Predicted Biological Score (PBS)” value [1] is given as “A”.

In the case of RGPD3, the “Predicted Biological Score (PBS)” value [1] is given as “A”.

For “H2A: unrelated histone H2A (amino acids 1–17) peptide (Epicypher, Inc.) (SGRGKQGGKARAKAKTR; UniProt P0C0S8 2-18, looked up, fragment) [Peptide H2A]”, the “Effect of transfection on gene expression (ELANE and LHX2 mRNA)” value [2] was “not the unrelated H2A or HEPES buffer affected gene expression”.

In the case of “ARTKQTARKSTGGK(Me2)APRKQL-Peg-Biot [Peptide H3met, histone H3.1 amino acids 1–20 dimethylated at Lys^14, biotinylated]”, the “recAkirin2–histone H3.1 peptide interaction by pull-down and Western blot” value [3] is reported as “corroborated by in vitro protein pull-down and Western blot analysis” and the “Akirin2–histone interaction by histone peptide array” value [4] is reported as “Akirin2–histone H3.1 interacting peptides”.

For sp¦Q5T4S7¦UBR4_HUMAN, the “Fold Change” value [5, 8] was 0.241 and the “Log (Fold Change)” value [5, 8] was -0.6179.

In the case of “SNRNP70: U1 small nuclear ribonucleoprotein 70 kDa (P08621), protein negative control”, the “Akirin2–IP interaction” value [6] is reported as “low interaction with Akirin2”.

In the case of Eosinophil peroxidase, the “Fold Change” value [5, 9] is reported as 5.162 and the “Log (Fold Change)” value [5, 9] is reported as 0.7128.

For sp¦P56545¦CTBP2_HUMAN, the “Fold Change” value [5, 8] was 0.655 and the “Log (Fold Change)” value [5, 8] was -0.1838.

With CD44 antigen the “Fold Change” value [5, 9] was 2.131 and the “Log (Fold Change)” value [5, 9] was 0.3287.

With sp¦Q92616¦GCN1_HUMAN the “Fold Change” value [5, 10] was 0.4921 and the “Log (Fold Change)” value [5, 10] was -0.3079.

With sp¦P08238¦HS90B_HUMAN the “Fold Change” value [5, 11] was 1.209 and the “Log (Fold Change)” value [5, 11] was 0.08231.

In the case of sp¦O75874¦IDHC_HUMAN, the “Fold Change” value [5, 9] is reported as 1.681 and the “Log (Fold Change)” value [5, 9] is reported as 0.2255.

In the case of sp¦Q9BRF8¦CPPED_HUMAN, the “Fold Change” value [5, 12] is reported as 0.571 and the “Log (Fold Change)” value [5, 12] is reported as -0.2434.

With sp¦Q9Y5B9¦SP16H_HUMAN the “Fold Change” value [5, 13] was 0.7335 and the “Log (Fold Change)” value [5, 13] was -0.1346.

For “histone H4 but: histone H4, amino acids 1–23 butyrylated at Lys 5, 8 and 12”, the “physical interaction with tick SUB” value [7] is listed as “physical interaction”.

With sp¦P13861¦KAP2_HUMAN the “Fold Change” value [5, 11] was 1.201 and the “Log (Fold Change)” value [5, 11] was 0.07946.

With sp¦P35250¦RFC2_HUMAN the “Fold Change” value [5, 14] was 0.7882 and the “Log (Fold Change)” value [5, 14] was -0.1034.

In the case of sp¦O43813¦LANC1_HUMAN, the “Fold Change” value [5, 13] is reported as 0.7366 and the “Log (Fold Change)” value [5, 13] is reported as -0.1328.

In the case of sp¦Q01469¦FABP5_HUMAN, the “Fold Change” value [5, 9] is reported as 1.478 and the “Log (Fold Change)” value [5, 9] is reported as 0.1698.

In the case of sp¦P08621¦RU17_HUMAN, the “Fold Change” value [5, 8] is reported as 0.6829 and the “Log (Fold Change)” value [5, 8] is reported as -0.1657.
